Laboratory results: ChEMBL document CHEMBL3611969, “The effect of complexation of 3-formylrifamycin SV macrocyclic ether derivatives with metal cations and small nitrogen-containing organic molecules on antibacterial activity against S. aureus and S. epidermidis” (Bioorg Med Chem Lett, 2015)
≈ marks a conversion by molar mass, not a printed value.

Tests used:
[1] = tested on: Staphylococcus epidermidis; experiment: Antibacterial activity against Staphylococcus epidermidis ATCC 12228 after 18 hrs by serial microdilution method; format: functional; conditions: ATCC 12228, 18 h
[2] = tested on: Staphylococcus epidermidis; experiment: Antibacterial activity against Staphylococcus epidermidis ATCC 49134 after 18 hrs by serial microdilution method; format: functional; conditions: ATCC 49134, 18 h
[3] = Solubility of the compound in water at pH 7; format: physicochemical
Staphylococcus aureus [4] = experiment: Antibacterial activity against Staphylococcus aureus ATCC 25923 after 18 hrs by serial microdilution method; format: functional; conditions: ATCC 25923, 18 h
[5] = Octanol-water partition coefficient, log P of the compound by UV-vis method; format: physicochemical
Staphylococcus aureus [6] = experiment: Antibacterial activity against Staphylococcus aureus ATCC 4163 after 18 hrs by serial microdilution method; format: functional; conditions: ATCC 4163, 18 h
Staphylococcus aureus [7] = experiment: Antibacterial activity against Staphylococcus aureus ATCC 6538 after 18 hrs by serial microdilution method; format: functional; conditions: ATCC 6538, 18 h
[8] = tested on: Staphylococcus epidermidis; experiment: Antibacterial activity against Staphylococcus epidermidis ATCC 49134 after 18 hrs by serial microdilution method in presence of isoniazid; format: functional; conditions: ATCC 49134, 18 h
[9] = tested on: Staphylococcus epidermidis; experiment: Antibacterial activity against Staphylococcus epidermidis ATCC 49134 after 18 hrs by serial microdilution method in presence of 2-chlorobenzylamine; format: functional; conditions: ATCC 49134, 18 h
Staphylococcus aureus [10] = experiment: Antibacterial activity against Staphylococcus aureus ATCC 4163 after 18 hrs by serial microdilution method in presence of 2-chlorobenzylamine; format: functional; conditions: ATCC 4163, 18 h
Staphylococcus aureus [11] = experiment: Antibacterial activity against Staphylococcus aureus ATCC 6538 after 18 hrs by serial microdilution method in presence of isoniazid; format: functional; conditions: ATCC 6538, 18 h
[12] = tested on: Staphylococcus epidermidis; experiment: Antibacterial activity against Staphylococcus epidermidis ATCC 12228 after 18 hrs by serial microdilution method in presence of histamine; format: functional; conditions: ATCC 12228, 18 h
[13] = tested on: Staphylococcus epidermidis; experiment: Antibacterial activity against Staphylococcus epidermidis ATCC 49134 after 18 hrs by serial microdilution method in presence of histamine; format: functional; conditions: ATCC 49134, 18 h
[14] = tested on: Staphylococcus epidermidis; experiment: Antibacterial activity against Staphylococcus epidermidis ATCC 12228 after 18 hrs by serial microdilution method in presence of isoniazid; format: functional; conditions: ATCC 12228, 18 h
Staphylococcus aureus [15] = experiment: Antibacterial activity against Staphylococcus aureus ATCC 4163 after 18 hrs by serial microdilution method in presence of 4-fluorobenzylamine; format: functional; conditions: ATCC 4163, 18 h
Staphylococcus aureus [16] = experiment: Antibacterial activity against Staphylococcus aureus ATCC 6538 after 18 hrs by serial microdilution method in presence of histamine; format: functional; conditions: ATCC 6538, 18 h
[17] = tested on: Staphylococcus epidermidis; experiment: Antibacterial activity against Staphylococcus epidermidis ATCC 12228 after 18 hrs by serial microdilution method in presence of 4-fluorobenzylamine; format: functional; conditions: ATCC 12228, 18 h
Staphylococcus aureus [18] = experiment: Antibacterial activity against Staphylococcus aureus ATCC 25923 after 18 hrs by serial microdilution method in presence of 2-chlorobenzylamine; format: functional; conditions: ATCC 25923, 18 h
Staphylococcus aureus [19] = experiment: Antibacterial activity against Staphylococcus aureus ATCC 25923 after 18 hrs by serial microdilution method in presence of isoniazid; format: functional; conditions: ATCC 25923, 18 h
Staphylococcus aureus [20] = experiment: Antibacterial activity against Staphylococcus aureus ATCC 25923 after 18 hrs by serial microdilution method in presence of histamine; format: functional; conditions: ATCC 25923, 18 h
[21] = tested on: Staphylococcus epidermidis; experiment: Antibacterial activity against Staphylococcus epidermidis ATCC 49134 after 18 hrs by serial microdilution method in presence of 4-fluorobenzylamine; format: functional; conditions: ATCC 49134, 18 h
Staphylococcus aureus [22] = experiment: Antibacterial activity against Staphylococcus aureus ATCC 4163 after 18 hrs by serial microdilution method in presence of histamine; format: functional; conditions: ATCC 4163, 18 h
Staphylococcus aureus [23] = experiment: Antibacterial activity against Staphylococcus aureus ATCC 6538 after 18 hrs by serial microdilution method in presence of 2-chlorobenzylamine; format: functional; conditions: ATCC 6538, 18 h
Staphylococcus aureus [24] = experiment: Antibacterial activity against Staphylococcus aureus ATCC 25923 after 18 hrs by serial microdilution method in presence of 4-fluorobenzylamine; format: functional; conditions: ATCC 25923, 18 h
Staphylococcus aureus [25] = experiment: Antibacterial activity against Staphylococcus aureus ATCC 6538 after 18 hrs by serial microdilution method in presence of 4-fluorobenzylamine; format: functional; conditions: ATCC 6538, 18 h
Staphylococcus aureus [26] = experiment: Antibacterial activity against Staphylococcus aureus ATCC 4163 after 18 hrs by serial microdilution method in presence of isoniazid; format: functional; conditions: ATCC 4163, 18 h
[27] = tested on: Staphylococcus epidermidis; experiment: Antibacterial activity against Staphylococcus epidermidis ATCC 12228 after 18 hrs by serial microdilution method in presence of 2-chlorobenzylamine; format: functional; conditions: ATCC 12228, 18 h
Staphylococcus aureus [28] = experiment: Antibacterial activity against Staphylococcus aureus ATCC 6538 after 18 hrs by serial microdilution method in presence of Na+; format: functional; conditions: ATCC 6538, 18 h
[29] = tested on: Staphylococcus epidermidis; experiment: Antibacterial activity against Staphylococcus epidermidis ATCC 49134 after 18 hrs by serial microdilution method in presence of Na+; format: functional; conditions: ATCC 49134, 18 h
Staphylococcus aureus [30] = experiment: Antibacterial activity against Staphylococcus aureus ATCC 4163 after 18 hrs by serial microdilution method in presence of Na+; format: functional; conditions: ATCC 4163, 18 h
[31] = tested on: Staphylococcus epidermidis; experiment: Antibacterial activity against Staphylococcus epidermidis ATCC 49134 after 18 hrs by serial microdilution method in presence of Li+; format: functional; conditions: ATCC 49134, 18 h
Staphylococcus aureus [32] = experiment: Antibacterial activity against Staphylococcus aureus ATCC 25923 after 18 hrs by serial microdilution method in presence of Li+; format: functional; conditions: ATCC 25923, 18 h
Staphylococcus aureus [33] = experiment: Antibacterial activity against Staphylococcus aureus ATCC 25923 after 18 hrs by serial microdilution method in presence of Na+; format: functional; conditions: ATCC 25923, 18 h
Staphylococcus aureus [34] = experiment: Antibacterial activity against Staphylococcus aureus ATCC 4163 after 18 hrs by serial microdilution method in presence of Li+; format: functional; conditions: ATCC 4163, 18 h
[35] = tested on: Staphylococcus epidermidis; experiment: Antibacterial activity against Staphylococcus epidermidis ATCC 12228 after 18 hrs by serial microdilution method in presence of Li+; format: functional; conditions: ATCC 12228, 18 h
Staphylococcus aureus [36] = experiment: Antibacterial activity against Staphylococcus aureus ATCC 6538 after 18 hrs by serial microdilution method in presence of Li+; format: functional; conditions: ATCC 6538, 18 h
[37] = tested on: Staphylococcus epidermidis; experiment: Antibacterial activity against Staphylococcus epidermidis ATCC 12228 after 18 hrs by serial microdilution method in presence of Na+; format: functional; conditions: ATCC 12228, 18 h

## CO[C@H]1/C=C/O[C@@]2(C)Oc3c(C)c(O)c4c(O)c(c(CNC5CCOCC5)c(O)c4c3C2=O)NC(=O)/C(C)=C\C=C\[C@H](C)[C@H](O)[C@@H](C)[C@@H](O)[C@@H](C)[C@H](OC(C)=O)[C@@H]1C
[1]
  MIC: 0.25 µg/mL (≈ 0.308 µM)
[2]
  MIC: 0.25 µg/mL (≈ 0.308 µM)
[3]
  solubility: 500 µg/mL (≈ 617 µM)
Staphylococcus aureus [4]
  MIC: 0.5 µg/mL (≈ 0.617 µM)
[5]
  logP: 2.05
Staphylococcus aureus [6]
  MIC: 0.5 µg/mL (≈ 0.617 µM)
Staphylococcus aureus [7]
  MIC: 0.5 µg/mL (≈ 0.617 µM)

## NCc1ccc(F)cc1
[1]
  MIC: > 4 µg/mL
[2]
  MIC: > 4 µg/mL
Staphylococcus aureus [4]
  MIC: > 4 µg/mL
Staphylococcus aureus [6]
  MIC: > 4 µg/mL
Staphylococcus aureus [7]
  MIC: > 4 µg/mL

## CO[C@H]1/C=C/O[C@@]2(C)Oc3c(C)c(O)c4c(O)c(c(CNCC5CCOCC5)c(O)c4c3C2=O)NC(=O)/C(C)=C\C=C\[C@H](C)[C@H](O)[C@@H](C)[C@@H](O)[C@@H](C)[C@H](OC(C)=O)[C@@H]1C
[1]
  MIC: 0.25 µg/mL (≈ 0.303 µM)
[2]
  MIC: 0.25 µg/mL (≈ 0.303 µM)
[3]
  solubility: 250 µg/mL (≈ 303 µM)
Staphylococcus aureus [4]
  MIC: 0.5 µg/mL (≈ 0.606 µM)
[5]
  logP: 2.37
Staphylococcus aureus [6]
  MIC: 0.5 µg/mL (≈ 0.606 µM)
Staphylococcus aureus [7]
  MIC: 0.5 µg/mL (≈ 0.606 µM)

## CO[C@H]1/C=C/O[C@@]2(C)Oc3c(C)c(O)c4c(O)c(c(CN5CCOCCOCCOCCOCC5)c(O)c4c3C2=O)NC(=O)/C(C)=C\C=C\[C@H](C)[C@H](O)[C@@H](C)[C@@H](O)[C@@H](C)[C@H](OC(C)=O)[C@@H]1C
[1]
  MIC: > 4 µg/mL
[2]
  MIC: > 4 µg/mL
[3]
  solubility: 1600 µg/mL (≈ 1720 µM)
Staphylococcus aureus [4]
  MIC: > 4 µg/mL
[5]
  logP: -0.92
Staphylococcus aureus [6]
  MIC: 4 µg/mL (≈ 4.31 µM)
Staphylococcus aureus [7]
  MIC: 4 µg/mL (≈ 4.31 µM)

## CO[C@H]1/C=C/O[C@@]2(C)Oc3c(C)c(O)c4c(O)c(c(CNc5ccc6c(c5)OCCOCCOc5ccccc5OCCOCCO6)c(O)c4c3C2=O)NC(=O)/C(C)=C\C=C\[C@H](C)[C@H](O)[C@@H](C)[C@@H](O)[C@@H](C)[C@H](OC(C)=O)[C@@H]1C
[8]
  MIC: 0.5 µg/mL
[9]
  MIC: 0.25 µg/mL
[1]
  MIC: 0.5 µg/mL (≈ 0.461 µM)
[2]
  MIC: 0.5 µg/mL (≈ 0.461 µM)
Staphylococcus aureus [10]
  MIC: 0.25 µg/mL
[3]
  solubility: < 50 µg/mL
Staphylococcus aureus [11]
  MIC: 1 µg/mL
[12]
  MIC: 1.25 µg/mL
Staphylococcus aureus [4]
  MIC: 2 µg/mL (≈ 1.84 µM)
[13]
  MIC: 0.125 µg/mL
[14]
  MIC: 0.5 µg/mL
Staphylococcus aureus [15]
  MIC: 0.25 µg/mL
Staphylococcus aureus [16]
  MIC: 0.125 µg/mL
[17]
  MIC: 0.25 µg/mL
Staphylococcus aureus [18]
  MIC: 0.25 µg/mL
Staphylococcus aureus [19]
  MIC: 1 µg/mL
Staphylococcus aureus [20]
  MIC: 0.125 µg/mL
[21]
  MIC: 0.25 µg/mL
[5]
  logP: 1.12
Staphylococcus aureus [22]
  MIC: 0.125 µg/mL
Staphylococcus aureus [23]
  MIC: 0.25 µg/mL
Staphylococcus aureus [24]
  MIC: 0.25 µg/mL
Staphylococcus aureus [6]
  MIC: 2 µg/mL (≈ 1.84 µM)
Staphylococcus aureus [25]
  MIC: 0.25 µg/mL
Staphylococcus aureus [7]
  MIC: 1 µg/mL (≈ 0.921 µM)
Staphylococcus aureus [26]
  MIC: 1 µg/mL
[27]
  MIC: 0.25 µg/mL

## CO[C@H]1/C=C/O[C@@]2(C)Oc3c(C)c(O)c4c(O)c(c(CN5CCOCCOCCOCCOCCOCC5)c(O)c4c3C2=O)NC(=O)/C(C)=C\C=C\[C@H](C)[C@H](O)[C@@H](C)[C@@H](O)[C@@H](C)[C@H](OC(C)=O)[C@@H]1C
[1]
  MIC: 2 µg/mL (≈ 2.06 µM)
[2]
  MIC: 2 µg/mL (≈ 2.06 µM)
[3]
  solubility: 1200 µg/mL (≈ 1230 µM)
Staphylococcus aureus [4]
  MIC: > 4 µg/mL
[5]
  logP: -0.54
Staphylococcus aureus [6]
  MIC: 4 µg/mL (≈ 4.11 µM)
Staphylococcus aureus [7]
  MIC: 4 µg/mL (≈ 4.11 µM)

## CO[C@H]1/C=C/O[C@@]2(C)Oc3c(C)c(O)c4c(O)c(c(C=O)c(O)c4c3C2=O)NC(=O)/C(C)=C\C=C\[C@H](C)[C@H](O)[C@@H](C)[C@@H](O)[C@@H](C)[C@H](OC(C)=O)[C@@H]1C
[1]
  MIC: 0.125 µg/mL (≈ 0.172 µM)
[2]
  MIC: 0.125 µg/mL (≈ 0.172 µM)
Staphylococcus aureus [4]
  MIC: 0.5 µg/mL (≈ 0.689 µM)
Staphylococcus aureus [6]
  MIC: 0.5 µg/mL (≈ 0.689 µM)
Staphylococcus aureus [7]
  MIC: 0.5 µg/mL (≈ 0.689 µM)

## CO[C@H]1/C=C/O[C@@]2(C)Oc3c(C)c(O)c4c(O)c(c(CNCC5COCCOCCOCCOCCO5)c(O)c4c3C2=O)NC(=O)/C(C)=C\C=C\[C@H](C)[C@H](O)[C@@H](C)[C@@H](O)[C@@H](C)[C@H](OC(C)=O)[C@@H]1C (some centres not stated)
[1]
  MIC: 2 µg/mL (≈ 2.09 µM)
[2]
  MIC: 2 µg/mL (≈ 2.09 µM)
Staphylococcus aureus [28]
  MIC: 2 µg/mL
[3]
  solubility: 120 µg/mL (≈ 125 µM)
[29]
  MIC: 4 µg/mL
Staphylococcus aureus [30]
  MIC: > 4 µg/mL
Staphylococcus aureus [4]
  MIC: > 4 µg/mL
[31]
  MIC: 2 µg/mL
Staphylococcus aureus [32]
  MIC: > 4 µg/mL
Staphylococcus aureus [33]
  MIC: > 4 µg/mL
Staphylococcus aureus [34]
  MIC: 4 µg/mL
[5]
  logP: 1.18
[35]
  MIC: 2 µg/mL
Staphylococcus aureus [36]
  MIC: > 4 µg/mL
[37]
  MIC: 4 µg/mL
Staphylococcus aureus [6]
  MIC: 4 µg/mL (≈ 4.17 µM)
Staphylococcus aureus [7]
  MIC: 2 µg/mL (≈ 2.09 µM)
